# Test results from patent US4481192A, “Acid-protease inhibiting peptide derivatives” (SANOFI, priority 1982, dated 1984).
# Read-outs that look alike come from different tables or passages of the source. Non-standard residues stand in square brackets, D forms with d. Residues, ends and D or L forms follow the SMILES beside them. *: point of attachment. Sta = CC(C)C[C@H](N)[C@@H](O)CC(=O)O; Isovaleryl = CC(C)CC(=O)*; Nva = CCC[C@H](N)C(=O)O; Cbz = O=C(OCc1ccccc1)*; Boc = CC(C)(C)OC(=O)*
# Assays:
# Type in all cases: biochemical
# porcine pepsin = porcine pepsin (Sus scrofa, UniProt P00791); experiment: Inhibition of porcine pepsin; conditions: pH 2, substrate bovine haemoglobin, 37° C.
# Description: The method used is that of TAKAAKI AOYAGI (J. Antibiotics, 24, pages 687-694, 1971). The substrate used is bovine haemoglobin and the enzyme is porcine pepsin.
# 0.5% strength haemoglobin is hydrolysed with pepsin (1 mcg/ml) at 37° C. in 0.02M KCl-HCl buffer at pH 2.
# Preincubation takes place for 3 minutes, followed by incubation for 25 minutes. After precipitation of the proteins with 1.7M perchloric acid, the optical density of the supernatant is determined on a spectrophotometer at 280 nm.
# The results are expressed as the percentage inhibition of the maximum optical density obtained in the absence of inhibitor. They are also expressed as an IC50.
# (§1) A 10^-3 M stock solution of the peptide is made up in a mixture containing equal volumes of a solution A (19 ml of methanol+1 ml of acetic acid) and a solution B (4 ml of methanol+2 ml of sodium hydroxide solution).
# (§2) The subsequent dilutions of the peptide are then prepared in the appropriate buffer in accordance with the procedures described above.
# cathepsin D = target: T1, cathepsin D (Bos taurus, UniProt P80209); experiment: Enzyme inhibition of cathepsin D; conditions: pH 3.2, substrate bovine haemoglobin, 37° C., incubation 30 minutes
# T1 construct: purchased SIGMA C 3138
# Description: The method used is very similar to the pepsin method (T. AOYAGI, 1971).
# The substrate used is bovine haemoglobin and the enzyme is cathepsin D of bovine origin (SIGMA, No.C 3138, batch 26 C-8100).
# 0.5% strength haemoglobin is hydrolysed with cathepsin D (200 μg/ml) at 37° C. in citrate-phosphate buffer at pH 3.2.
# The substrate, the inhibitor and the enzyme are incubated for 30 minutes.
# After precipitation of the proteins with 1.7M perchloric acid, the optical density of the supernatant is determined on a spectrophotometer at 280 nm.
# The results are expressed as the percentage reduction in the maximum optical density obtained in the absence of inhibitor.
# as §1, §2
# [1] = target: T2, human plasma renin activity (Homo sapiens, UniProt P00797); experiment: Inhibition of the human plasma renin activity (P.R.A.); conditions: 37° C., pool of human plasma
# T2 construct: the human plasma contain and the substrate: angiotensinogen, and the enzyme: renin; from tissue; host or cells: pool of human plasma
# T2 sequence (P00797 67-406): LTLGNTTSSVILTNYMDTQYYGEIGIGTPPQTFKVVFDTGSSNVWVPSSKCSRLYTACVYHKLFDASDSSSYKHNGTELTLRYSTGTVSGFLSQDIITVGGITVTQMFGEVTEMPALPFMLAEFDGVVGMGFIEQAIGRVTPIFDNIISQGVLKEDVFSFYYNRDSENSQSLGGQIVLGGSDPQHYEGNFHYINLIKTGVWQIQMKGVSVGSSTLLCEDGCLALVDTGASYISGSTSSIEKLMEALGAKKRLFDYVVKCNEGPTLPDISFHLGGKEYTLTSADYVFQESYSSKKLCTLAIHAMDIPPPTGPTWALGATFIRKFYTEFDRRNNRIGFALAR
# Description: The angiotensin I released during the reaction (the human plasma contain and the substrate: angiotensinogen, and the enzyme: renin) is measured by radioimmunological determination using a kit.
# Of course, an inhibitor of the enzyme for conversion of the PMSF (phenylmethylsulphonyl fluoride) is added to the incubation medium.
# Two types of experiments were carried out:
# one at pH 6, which is the optimum pH for the enzyme reaction with human renin (maleate buffer, incubation: 30 minutes), and
# the other at pH 7.4, which is the physiological pH (phosphate buffer, incubation: 60 minutes).
# as §1, §2
# [2] = pH 6, maleate buffer, incubation 30 minutes, read-out: INHIBITION OF HUMAN P.R.A. (IC50) pH 6
# [3] = pH 7.4, phosphate buffer, incubation 60 minutes, read-out: INHIBITION OF HUMAN P.R.A. (IC50) pH 7.4
# Sequence of porcine pepsin (P00791 60-385): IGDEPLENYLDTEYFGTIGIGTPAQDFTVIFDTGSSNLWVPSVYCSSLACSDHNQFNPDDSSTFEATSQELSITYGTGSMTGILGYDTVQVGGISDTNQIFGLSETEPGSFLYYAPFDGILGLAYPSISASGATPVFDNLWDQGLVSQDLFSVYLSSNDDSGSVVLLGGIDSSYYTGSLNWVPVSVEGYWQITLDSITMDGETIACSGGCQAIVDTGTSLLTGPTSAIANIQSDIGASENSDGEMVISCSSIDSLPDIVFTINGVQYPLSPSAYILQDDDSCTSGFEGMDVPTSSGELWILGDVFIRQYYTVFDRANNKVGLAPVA
# T1 sequence (P80209 45-390): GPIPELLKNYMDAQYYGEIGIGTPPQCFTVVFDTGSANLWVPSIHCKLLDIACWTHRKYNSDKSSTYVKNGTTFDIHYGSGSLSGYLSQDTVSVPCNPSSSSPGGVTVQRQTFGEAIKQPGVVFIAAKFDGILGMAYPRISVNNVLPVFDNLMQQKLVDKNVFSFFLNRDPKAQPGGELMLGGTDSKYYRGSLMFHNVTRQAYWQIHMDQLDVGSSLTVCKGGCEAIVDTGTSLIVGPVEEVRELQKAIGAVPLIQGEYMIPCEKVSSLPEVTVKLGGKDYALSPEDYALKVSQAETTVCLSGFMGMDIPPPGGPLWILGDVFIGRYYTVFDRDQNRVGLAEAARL
IC50 (porcine pepsin),IC50 (cathepsin D),"IC50 [1, 2]","IC50 [1, 3]",Compound
1300 nM,870 nM,–,–,"COC(=O)C[C@H](O)[C@H](CC(C)C)NC(=O)[C@H](C)NC(=O)C[C@H](O)[C@H](CC(C)C)NC(=O)[C@H](Cc1c[nH]cn1)NC(=O)[C@H](Cc1ccccc1)NC(=O)OC(C)(C)C [SR 41395, Boc--Phe--His--Sta--Ala--Sta--OMe] (Boc-FH[Sta]A[Sta]-OMe)"
120 nM,130 nM,–,–,"COC(=O)C[C@H](O)[C@H](CC(C)C)NC(=O)[C@H](C)NC(=O)C[C@H](O)[C@H](CC(C)C)NC(=O)[C@H](Cc1c[nH]c2ccccc12)NC(=O)[C@H](Cc1c[nH]c2ccccc12)NC(=O)OC(C)(C)C [SR 41376, Boc--Trp--Trp--Sta--Ala--Sta--OMe] (Boc-WW[Sta]A[Sta]-OMe)"
16 nM,–,0.03 nM,42 nM,"CCC[C@H](NC(=O)[C@H](Cc1ccccc1)NC(=O)CC(C)C)C(=O)N[C@@H](CC(C)C)[C@@H](O)CC(=O)N[C@@H](C)C(=O)N[C@@H](CC(C)C)[C@@H](O)CC(=O)OC [SR 41995, iVa--Phe--Nva--Sta--Ala--Sta--OMe] (Isovaleryl-F[Nva][Sta]A[Sta]-OMe)"
14 nM,180 nM,3.5 nM,190 nM,"COC(=O)C[C@H](O)[C@H](CC(C)C)NC(=O)[C@H](C)NC(=O)C[C@H](O)[C@H](CC(C)C)NC(=O)[C@H](Cc1ccccc1)NC(=O)[C@H](Cc1ccccc1)NC(=O)OC(C)(C)C [SR 41331, Boc--Phe--Phe--Sta--Ala--Sta--OMe] (Boc-FF[Sta]A[Sta]-OMe)"
–,750 nM,–,–,"COC(=O)C[C@H](O)[C@H](CC(C)C)NC(=O)[C@H](C)NC(=O)C[C@H](O)[C@H](CC(C)C)NC(=O)[C@H](Cc1c[nH]cn1)NC(=O)[C@H](Cc1c[nH]c2ccccc12)NC(=O)OC(C)(C)C [SR 41619, Boc--Trp--His--Sta--Ala--Sta--OMe] (Boc-WH[Sta]A[Sta]-OMe)"
27 nM,–,52 nM,2600 nM,"COC(=O)C[C@H](O)[C@H](CC(C)C)NC(=O)[C@H](C)NC(=O)C[C@H](O)[C@H](CC(C)C)NC(=O)[C@H](CCCCNC(=O)OCc1ccccc1)NC(=O)[C@H](Cc1ccccc1)NC(=O)CC(C)C [SR 42130, iVa--Phe--Lys(Z)--Sta--Ala--Sta--OMe] (Isovaleryl-FK(Cbz)[Sta]A[Sta]-OMe)"
24 nM,–,170 nM,2200 nM,"COC(=O)C[C@H](O)[C@H](CC(C)C)NC(=O)[C@H](C)NC(=O)C[C@H](O)[C@H](CC(C)C)NC(=O)[C@@H](NC(=O)[C@H](Cc1ccc(O)cc1)NC(=O)OCc1ccccc1)C(C)C [SR 41476, Z--Tyr--Val--Sta--Ala--Sta--OMe] (Cbz-YV[Sta]A[Sta]-OMe)"
8 nM,–,0.33 nM,75 nM,"COC(=O)C[C@H](O)[C@H](CC(C)C)NC(=O)[C@H](C)NC(=O)C[C@H](O)[C@H](CC(C)C)NC(=O)[C@H](CC(C)C)NC(=O)[C@H](Cc1ccccc1)NC(=O)CC(C)C [SR 41765, iVa--Phe--Leu--Sta--Ala--Sta--OMe] (Isovaleryl-FL[Sta]A[Sta]-OMe)"
550 nM,700 nM,–,45 nM,"CC(C)C[C@H](NC(=O)[C@H](C)NC(=O)C[C@H](O)[C@H](CC(C)C)NC(=O)[C@H](Cc1c[nH]cn1)NC(=O)[C@H](Cc1ccccc1)NC(=O)OC(C)(C)C)[C@@H](O)CC(=O)O [SR 41492, Boc--Phe--His--Sta--Ala--Sta--OH] (Boc-FH[Sta]A[Sta]-OH)"
29 nM,75 nM,6.75 nM,150 nM,"COC(=O)C[C@H](O)[C@H](CC(C)C)NC(=O)[C@H](C)NC(=O)C[C@H](O)[C@H](CC(C)C)NC(=O)[C@@H](NC(=O)[C@H](Cc1c[nH]c2ccccc12)NC(=O)OCc1ccccc1)C(C)C [SR 41485, Z--Trp--Val--Sta--Ala--Sta--OMe] (Cbz-WV[Sta]A[Sta]-OMe)"
65 nM,95 nM,–,–,"COC(=O)C[C@H](O)[C@H](CC(C)C)NC(=O)[C@H](C)NC(=O)C[C@H](O)[C@H](CC(C)C)NC(=O)[C@@H](NC(=O)[C@H](Cc1ccccc1)NC(=O)OCc1ccccc1)C(C)C [SR 41405, Z--Phe--Val--Sta--Ala--Sta--OMe] (Cbz-FV[Sta]A[Sta]-OMe)"
42 nM,–,12 nM,310 nM,"COC(=O)C[C@H](O)[C@H](CC(C)C)NC(=O)[C@H](C)NC(=O)C[C@H](O)[C@H](CC(C)C)NC(=O)[C@H](Cc1ccccc1)NC(=O)[C@H](Cc1ccccc1)NC(=O)CC(C)C [SR 41764, iVa--Phe--Phe--Sta--Ala--Sta--OMe] (Isovaleryl-FF[Sta]A[Sta]-OMe)"
